Test results published in ChEMBL document CHEMBL6153147 (J Med Chem, 2025).

How the values were obtained:
SW-620 = experiment: cells; conditions: Homo sapiens
HEK-293T = experiment: Effect on mitochondrial membrane potential in HEK293T cells at 10 uM incubated for 24 hrs by MitoTracker Red probe based analysis; format: toxicity, cell-based; conditions: human
PC-9 = experiment: cells; conditions: Homo sapiens
[1] = Oral bioavailability in C57BL/6 mouse at 10 mg/kg measured for 0.5 to […] htr by LC-MS/MS analysis; format: ADME, organism-based; conditions: in vivo, time 0.5-12 hrs
[2] = molecular target: T1, Serine/threonine-protein kinase PLK1 (Homo sapiens, UniProt P53350); experiment: Inhibition of human PLK1 using ATF2 as substrate incubated for 40 mins in presence of [gamma-33P]ATP/Mg acetate by scintillation counting analysis
T1 sequence (P53350 whole entry): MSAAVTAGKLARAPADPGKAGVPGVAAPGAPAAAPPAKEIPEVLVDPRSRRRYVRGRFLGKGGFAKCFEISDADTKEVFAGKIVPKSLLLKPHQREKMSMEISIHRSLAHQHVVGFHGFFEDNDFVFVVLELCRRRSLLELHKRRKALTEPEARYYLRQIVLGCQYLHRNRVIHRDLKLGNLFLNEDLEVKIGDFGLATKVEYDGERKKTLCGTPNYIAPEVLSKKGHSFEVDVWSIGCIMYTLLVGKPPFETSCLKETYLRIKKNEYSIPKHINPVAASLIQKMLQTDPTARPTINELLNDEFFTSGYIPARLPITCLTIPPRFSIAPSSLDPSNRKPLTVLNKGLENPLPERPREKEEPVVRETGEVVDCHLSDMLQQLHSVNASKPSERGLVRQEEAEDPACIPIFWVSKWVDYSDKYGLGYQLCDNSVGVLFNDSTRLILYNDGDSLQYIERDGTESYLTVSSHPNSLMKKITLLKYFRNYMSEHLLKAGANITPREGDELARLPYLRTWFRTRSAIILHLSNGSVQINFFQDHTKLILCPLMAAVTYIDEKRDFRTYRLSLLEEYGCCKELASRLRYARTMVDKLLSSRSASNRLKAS

[3] = Metabolic stability in mouse liver microsomes assessed as intrinsic clearance preincubated for 5 mins followed by NADPH addition by LC-MS/MS analysis; format: ADME, Microsome; conditions: read-out: CLH
[4] = Metabolic stability in dog liver microsomes assessed as half life preincubated for 5 mins followed by NADPH addition by LC-MS/MS analysis; format: ADME, Canis lupus familiaris, Microsome
[5] = Metabolic stability in mouse liver microsomes assessed as half life preincubated for 5 mins followed by NADPH addition by LC-MS/MS analysis; format: ADME, Microsome
[6] = molecular target: TRAF2 and NCK-interacting protein kinase (Homo sapiens) (UniProt Q9UKE5); experiment: Inhibition of human TNIK assessed as residual activity at 10 uM by kinome selectivity profiling analysis relative to control
TRAF2 and NCK-interacting protein kinase (Homo sapiens), sequence (Q9UKE5 whole entry, looked up): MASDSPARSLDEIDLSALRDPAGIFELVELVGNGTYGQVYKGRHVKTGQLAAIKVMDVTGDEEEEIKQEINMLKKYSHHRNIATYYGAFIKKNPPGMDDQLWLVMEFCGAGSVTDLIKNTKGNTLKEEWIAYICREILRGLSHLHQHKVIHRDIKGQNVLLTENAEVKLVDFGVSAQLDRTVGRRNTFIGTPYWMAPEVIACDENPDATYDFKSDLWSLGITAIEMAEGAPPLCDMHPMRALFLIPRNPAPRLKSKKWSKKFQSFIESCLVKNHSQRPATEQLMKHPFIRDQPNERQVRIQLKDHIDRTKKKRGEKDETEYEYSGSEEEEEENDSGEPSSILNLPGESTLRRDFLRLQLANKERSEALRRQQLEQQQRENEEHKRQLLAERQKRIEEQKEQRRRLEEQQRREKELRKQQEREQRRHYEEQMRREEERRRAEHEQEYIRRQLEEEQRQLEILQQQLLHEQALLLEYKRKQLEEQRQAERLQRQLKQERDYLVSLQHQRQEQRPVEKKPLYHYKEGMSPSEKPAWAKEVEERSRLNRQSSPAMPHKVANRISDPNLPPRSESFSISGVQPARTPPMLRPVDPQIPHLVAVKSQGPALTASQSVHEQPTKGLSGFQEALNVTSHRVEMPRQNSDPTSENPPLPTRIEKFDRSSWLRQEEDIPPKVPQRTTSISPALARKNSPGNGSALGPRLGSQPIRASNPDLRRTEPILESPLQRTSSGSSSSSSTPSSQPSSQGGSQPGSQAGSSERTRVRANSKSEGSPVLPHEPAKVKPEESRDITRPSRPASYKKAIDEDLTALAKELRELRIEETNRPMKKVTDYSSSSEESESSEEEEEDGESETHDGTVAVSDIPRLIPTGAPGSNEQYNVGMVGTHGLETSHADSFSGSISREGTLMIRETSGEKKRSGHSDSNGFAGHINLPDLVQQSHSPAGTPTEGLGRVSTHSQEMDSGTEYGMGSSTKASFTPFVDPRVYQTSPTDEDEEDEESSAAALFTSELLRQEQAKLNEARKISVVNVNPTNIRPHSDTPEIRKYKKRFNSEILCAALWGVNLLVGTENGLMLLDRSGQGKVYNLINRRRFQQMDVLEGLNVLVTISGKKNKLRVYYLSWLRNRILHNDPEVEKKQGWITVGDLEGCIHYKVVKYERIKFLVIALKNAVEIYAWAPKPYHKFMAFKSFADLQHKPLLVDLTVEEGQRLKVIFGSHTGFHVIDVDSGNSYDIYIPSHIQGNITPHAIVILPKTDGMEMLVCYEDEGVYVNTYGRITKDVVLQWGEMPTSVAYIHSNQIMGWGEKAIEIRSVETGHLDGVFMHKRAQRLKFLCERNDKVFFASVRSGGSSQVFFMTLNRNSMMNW

[7] = Solubility of compound in 0.01 M PBS at pH 7.4 assessed as fold increase equilibrated for 12 hrs by UV spectrophotometry relative to BI 2536; format: physicochemical; conditions: buffer, pH 7.4, 12 h
[8] = molecular target: T1, Serine/threonine-protein kinase PLK1; experiment: Inhibition of human PLK1 at 10 uM by kinome selectivity profiling analysis relative to control
[9] = molecular target: Dual specificity protein kinase CLK2 (Homo sapiens) (UniProt P49760); experiment: Inhibition of human CLK2 assessed as residual activity at 10 uM by kinome selectivity profiling analysis relative to control
Dual specificity protein kinase CLK2 (Homo sapiens), sequence (P49760 whole entry, looked up): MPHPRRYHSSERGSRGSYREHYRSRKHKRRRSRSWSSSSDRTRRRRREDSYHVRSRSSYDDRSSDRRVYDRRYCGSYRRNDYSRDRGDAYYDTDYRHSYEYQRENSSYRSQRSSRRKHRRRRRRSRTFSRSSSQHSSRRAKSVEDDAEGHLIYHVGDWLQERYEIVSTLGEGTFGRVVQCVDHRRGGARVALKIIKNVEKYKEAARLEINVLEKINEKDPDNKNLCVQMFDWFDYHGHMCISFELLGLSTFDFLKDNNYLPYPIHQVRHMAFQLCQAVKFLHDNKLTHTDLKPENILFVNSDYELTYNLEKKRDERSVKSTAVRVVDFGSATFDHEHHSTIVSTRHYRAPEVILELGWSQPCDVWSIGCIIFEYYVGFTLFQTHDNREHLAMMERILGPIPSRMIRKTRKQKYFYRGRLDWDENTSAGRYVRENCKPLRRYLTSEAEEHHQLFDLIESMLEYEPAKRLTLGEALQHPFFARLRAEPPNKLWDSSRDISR

SMILES: CC[C@@H]1C(=O)N(C)c2cnc(Nc3cc(N4CCN(C)CC4)cc(Cl)c3OCCCO)nc2N1C1CCCC1
- IC50 (SW-620): 8.2 nM
- Activity (HEK-293T): Non-toxic
- IC50 (PC-9): 775 nM
- bioavailability [1]: 45%
- IC50 [2]: 20 nM
- CLint scaled [3]: 829 mL/min/kg
- half-life [4]: 17.3 min
- half-life [5]: 16.6 min
- Activity [6]: 77%
- fold change (FC) [7]: > 2
- inhibition [8]: 100%
- Activity [9]: 70%
